Results published in patent US12503483B2, “Gemcitabine amphiphile prodrugs” (NANOMED HOLDINGS PTY LTD, priority 2018, dated 2025).
Like-named read-outs stand apart in the source and are kept apart here. Blank lines part the entries; values can stand above or below the compound they belong to.

Legend:
[1] = Water penetration scan by polarized optical microscopy (POM); type: physicochemical; settings: for Appearance of the Lyotropic phase at excess water (25° C.-50° C.): POM, equilibration 1 h; for Lyotropic phase formed in water penetration scan: neat amphiphile to pure water gradient, temperature as worded
Description: Polarized Optical Microscopy (POM): Samples used for Polarized Optical Microscopy (POM) were prepared by placing a small amount of prodrug amphiphile on a microscope slide and covered with a cover slip. Water was placed on the edges of the cover slip and allowed to flow into the sample by capillary action. The microscope slide was placed in a Linkam PE94 hot stage (Linkam Scientific Instruments Ltd. Surrey, England) and heated at 3° C./min between room temperature and 50° C. […] Images were captured with a Nikon DS-Ri-1 camera. All images were taken at 100× magnification.
(§1) The results of the water penetration scans and SAXS are summarised in Tables 1 and 2 and indicate that various self-assembled lyotropic liquid crystalline phases were formed for the different Gem apmphiphiles, with a broad range of mesophases from lamellar crystalline structure to lamellar liquid crystalline, cubic mesophases and sponge mesophases.
The textures obtained from water penetration scans along the established concentration gradient from neat amphiphile to pure water provide a quick insight into the lyotropic phase behaviour of a surfactant/water system. Melted neat amphiphile was placed on a microscopic slide and water was then introduced around the edge.

[2] = SAXS phase behaviour of hydrated Gem amphiphiles; type: physicochemical; settings: equilibration 48 h
Description: SAXS analyses of the bulk and lyotropic phases of the amphiphiles were performed on a Bruker NanoSTAR laboratory SAXS instrument (Brucker AXS, Kalsruhe, Germany).
The equilibrated lyotropic phases were placed into a demountable button sample cells. For the analysis of the dispersions, a multi-capillary holder was used. Button cells and capillary holder interchangeably fit into a block setup that was temperature-controlled with a Peltier heater-cooler system. 2D scattering images were radially averaged to conventional 1 D scattering plots and as a function of the q value (Å-1) where q is the length of the scattering vector which was calculated using the formula q=(4π/λ)sin(θ/2), where A is the wavelength and 6 is the scattering angle.
The mesophases formed were determined by indexing peaks using the reflection laws as described by De Campo et al., Langmuir, 2004. 20(13), 5254-5261. Small angle X-ray scattering patterns of emulsions and liposomes display large broad peaks while liquid crystalline phases of highly ordered nanostructured particles such as cubosomes and hexosomes display distinct sharp peaks. The relative positions of the peaks (“spacing”) allows for the elucidation of the symmetry of the structure. The interplanar distance (d) between two reflecting planes may be calculated using the formula d=(2π)/q, where q is the absolute position of the peak. This, in turn allows for the calculation of the lattice parameter (a), the size of the unit cell, to be calculated.
as §1

CACO2 cell line = assay: MTS cytotoxicity assay, 72 hours; type: cell-based; settings: prodrugs as nanoparticle dispersions
Description: (§2) The cytotoxicity of gemcitabine nanoparticles dispersion made from gemcitabine amphiphiles in the presence or absence of DMPC-cholesterol was evaluated in comparison to gemcitabine alone in several pancreatic cell lines including CF Pac-1, BxPC3, Panc-1 and MIA PaCa-2, MCF7and CACO2 cell lines. The cell lines were exposed to media with varying concentrations of the treatments (100-0.001 μM) and incubated for 72 hours. Cell viability was determined using the MTS assay and was conducted in triplicate to derive the IC50 values.

CFPAC-1 cell line [3] = assay: MTS cytotoxicity assay, 72 hours; type: cell-based; settings: CFPAC-1, 72 hours, prodrugs as nanoparticle dispersions
Description: as §2

MCF7 cell line = assay: MTS cytotoxicity assay, 72 hours; type: cell-based; settings: MCF7, 72 hours, prodrugs as nanoparticle dispersions
Description: as §2

BxPC3 cell line = assay: MTS cytotoxicity assay, 72 hours; type: cell-based; settings: Homo sapiens, BXPC-3, BxPC3, 72 hours
Description: as §2

MIAPaCa-2 cell line = assay: MTS cytotoxicity assay, 72 hours; type: cell-based; settings: Homo sapiens, MIA PaCa-2, MIAPaCa-2, 72 hours
Description: as §2

PANC-1 cell line = assay: MTS cytotoxicity assay, 72 hours; type: cell-based; settings: Homo sapiens, PANC-1, 72 hours
Description: as §2

[4] = test system: CFPAC-1 cell line-derived xenograft; assay: In vivo tumour inhibition, CFPAC-1 xenograft; set-up: species or system mice
Description: All treatments were administered via IV injection twice a week for four weeks. The amount of gemcitabine administered in the Gem nanoparticles was 4.45 mg/kg, which is an order of magnitude less than the ordinary dose used in clinic. The doses were equimolar with the gemcitabine control group in order to allow for a direct comparison of the anti-tumour efficacy between groups. The amount of total lipid injected was 1 mg/dose. Gemcitabine is administered intravenously at a dose of 1000 mg/m2 to treat pancreatic cancer in humans. The dose administered here is equivalent to 13.35 mg/m2 of gemcitabine being injected into humans; 1.33% of the clinical dose of gemcitabine in humans. In other studies, the amount of gemcitabine injected into mice in vivo studies has ranged from 7-100 mg/kg.
At the end of the study, the tumours were harvested.

CFPAC-1 cell line [5] = settings: 72 hours; read-out: IC50 of gemcitabine against the CFPAC-1 cell line; cited from earlier work
[6] = test system: Carboxylesterase from porcine liver; assay: In-situ enzymatic bioconversion of prodrug nanoparticles (LC/MS); type: in vitro ADME; settings: DMPC/cholesterol nanoparticles, 50 uM prodrug, 33.7 units/mL, 37° C.; for Bioconversion to Gemcitabine: FIG. 7b
Description: Nanoparticle dispersions of a mixture of Dimyristoylphosphatidylcholine and cholesterol with either (i) Gemcitabine-Phytanyl, (ii) Gemcitabine-PEG3-oleoyl or (iii) Gemcitabine-PEG3-oleoylamide were made at […] concentration of Gemcitabine prodrugs. Carboxylesterase solution from porcine liver obtained from Sigma-Aldrich was added to the nanoparticle dispersions, and the enzyme concentration in each respective nanoparticle dispersion was set to 33.7 units/mL.
The time at which the enzyme solution was added was taken as time zero for the hydrolysis reaction. The mixture was maintained at 37° C. throughout the experiment. The concentration of the hydrolysis product was measured at various time intervals using LC/MS and LC/MS^2 for the detection of prodrug converted to the active drug Gemcitabine. The time at which the sample was injected into the LC column was taken to be the reaction time for such sample. The hydrolysis progress curve, showing the decrease in the concentration of original substrate was plotted against time, whereas the bioconversion to Gemcitabine was determined by MS^2 methods. Standard curves for both prodrugs and the active bioconverted gemcitabine was assessed by using standard samples.
Thermo Finnigan (Finnigan LCQ Series, Thermo Scientific, USA) LC/MS equipped with an electron spray ionization (ESI) was used to assess the enzymatic reaction using both MS and MS^2 mode. The prodrug depletion was detected by negative ion for MS. The conversion of the prodrug to the Gemcitabine was detected by MS^2 at 112.1. 10 μl of sample withdrawn from the reaction solution was injected directly into a Phenomenex C8 150 mm×2 mm 5 uLuna column (Phenomenex, Australia). A 100% Methanol solution was used as mobile phase with the flow rate of 0.5 ml/min. The sample after the column separation was eluted to ESI source. The capillary temperature and ion spray voltage were set at 350° C. and 4.60 respectively. The sample temperature was well maintained at 37° C. during the entire measurement by incubating the samples in the temperature controlled auto-sampler. Data were acquired and processed with Xcalibur Quan chromatography software.
The decreased prodrug was calculated as the percentage of the area under the peak of Gemcitabine-prodrug compared to that before addition of the enzyme. The amount of Gemcitabine produced, was calculated from the area under the peak at 3.4 min related to Gemcitabine at 263 and its MS^2 at 112.1.

Appearance of the Lyotropic phase at excess water (25° C.-50° C.) [1]: An isotropic band, emulsion
Lyotropic phase ([2]; 25° C.): Sponge phase (L3)
Lyotropic phase ([2]; 37° C.): Sponge phase (L3)
Compound: CCCCC/C=C\C/C=C\CCCCCCCC(=O)OCCOCCOCCOC(=O)Nc1ccn([C@@H]2O[C@H](CO)[C@@H](O)C2(F)F)c(=O)n1 (relative stereo) [Gem-PEG3-linoleoyl, 2′-deoxy-2′,2′-difluoro-N4-((((cis-9, cis-12-octadecadienoyl)-oxy-triethyleneglycol)oxy)carbonyl) cytidine]
IC50 (CACO2 cell line; CACO2, 72 hours): 0.2 µM
IC50 (CFPAC-1 cell line [3]): 0.583 µM
IC50 (MCF7 cell line): 0.1 µM

Appearance of the Lyotropic phase at excess water (25° C.-50° C.) [1]: An isotropic band, cubic phase
Lyotropic phase ([2]; 25° C.): Ia3d
Lyotropic phase lattice parameter ([2]; 25° C.): 125.2 ± 0.5 Å
Lyotropic phase ([2]; 37° C.): Ia3d
Lyotropic phase lattice parameter ([2]; 37° C.): 124.4 ± 0.5 Å
Compound: CCCCCCCC/C=C\CCCCCCCC(=O)OCCOCCOCCOCCOCCOCCOC(=O)Nc1ccn([C@@H]2O[C@H](CO)[C@@H](O)C2(F)F)c(=O)n1 (relative stereo) [Gem-PEG6-oleoyl, 2′-deoxy-2′,2′-difluoro-N4-((((cis-9, octadecenoyl)-oxy-hexaethyleneglycol)oxy)carbonyl) cytidine]

Appearance of the Lyotropic phase at excess water (25° C.-50° C.) [1]: Birefringent ( lamellar)
Lyotropic phase lattice parameter ([2]; 25° C.): 55.26 ± 0.5 Å
Lyotropic phase lattice parameter ([2]; 37° C.): 55.26 ± 0.5 Å
Bioconversion to Gemcitabine [6]: bioconverted Gemcitabine very slowly
Compound: CCCCCCCC/C=C\CCCCCCCC(=O)OCCOCCOCCOC(=O)Nc1ccn([C@@H]2O[C@H](CO)[C@@H](O)C2(F)F)c(=O)n1 (relative stereo) [Gem-PEG3-oleoyl, 2′-deoxy-2′,2′-difluoro-N4-((((cis-9, octadecenoyl)oxy-triethyleneglycol)oxy)carbonyl) cytidine]
Prodrug reduction (hydrolysis) by CES enzyme [6]: reduced to Gem-PEG3 and the oleic acid quickly

Prodrug reduction (hydrolysis) by CES enzyme [6]: reduced at a lower rate
Time of prodrug reduction ([6]; FIG. 7a): 6 h
Bioconversion to Gemcitabine [6]: produced Gemcitabine sustainably
Compound: CCCCCCCC/C=C\CCCCCCCC(=O)NCCOCCOCCOC(=O)Nc1ccn([C@@H]2O[C@H](CO)[C@@H](O)C2(F)F)c(=O)n1 (relative stereo) [Gem-PEG3-oleoylamide, 2′-deoxy-2′,2′-difluoro-N4-((((cis-9, octadecenoyl)amino-triethyleneglycol)oxy)carbonyl) cytidine]

Further lines, the compound ahead of its results:

Compound: CCCCC/C=C\C/C=C\CCCCCCCCOC(=O)Nc1ccn([C@@H]2O[C@H](CO)[C@@H](O)C2(F)F)c(=O)n1 (relative stereo) [Gem-Lin, 2′-deoxy-2′,2′-difluoro-N4-(((cis-9,12,octadecadienenyl)oxy)carbonyl) cytidine]
Appearance of the Lyotropic phase at excess water (25° C.-50° C.) [1]: A birefringent band (LC)
Lyotropic phase lattice parameter ([2]; 25° C.): 53.2 ± 0.5 Å
Lyotropic phase lattice parameter ([2]; 37° C.): 53.2 ± 0.5 Å

Compound: Nc1ccn([C@@H]2O[C@H](CO)[C@@H](O)C2(F)F)c(=O)n1 [Gemcitabine, 2′,2′-difluoro-2′-deoxycytidine]
IC50 (BxPC3 cell line): 0.0225 µM
IC50 (CACO2 cell line; Homo sapiens, Caco-2, CACO2, 72 hours): 0.05 µM
IC50 (CFPAC-1 cell line [3]; Homo sapiens): 0.065 µM
IC50 (MCF7 cell line; Homo sapiens): 0.006 µM
IC50 (MIAPaCa-2 cell line): 0.023 µM
IC50 (PANC-1 cell line): > 100 µM
Tumour size trend over time ([4]; 4.45 mg/kg gemcitabine equimolar, IV twice a week for four weeks): increased in size, however at a slower rate compared with the control PBS group
Tumour volume as % of control tumour size ([4]; 4.45 mg/kg gemcitabine equimolar, IV twice a week for four weeks, 34 days): 54%
Average ex-vivo tumour weight, order of groups ([4]; end of study, control vs nanoparticles p<0.05): control group>Gemcitabine group>Gemcitabine nanoparticles
IC50 (CFPAC-1 cell line [5]): 0.0061 to 0.033 µM

Compound: CC(C)CCCC(C)CCCC(C)CCCC(C)CCOC(=O)Nc1ccn([C@@H]2O[C@H](CO)[C@@H](O)C2(F)F)c(=O)n1 (stereo partly shown) [Gem-Phy, 2′-deoxy-2′,2′-difluoro-N4-(((3,7,11,15-tetramethyl-hexadecyl)oxy)carbonyl) cytidine]
Appearance of the Lyotropic phase at excess water (25° C.-50° C.) [1]: An isotropic band
Lyotropic phase formed in water penetration scan [1]: 3D inversed bicontinous cubic phase (Pn3m space group) initially and then transform to 2D hexagonal phase
Lyotropic phase ([2]; 25° C.): Ia3d
Lyotropic phase lattice parameter ([2]; 25° C.): 135.8 ± 0.5 Å
Lyotropic phase ([2]; 37° C.): Ia3d
Lyotropic phase lattice parameter ([2]; 37° C.): 135.8 ± 0.5 Å
Prodrug reduction (hydrolysis) by CES enzyme [6]: slowest prodrug to reduce completely

Compound: CCCCCCCC/C=C\CCCCCCCCOC(=O)Nc1ccn([C@@H]2O[C@H](CO)[C@@H](O)C2(F)F)c(=O)n1 (relative stereo) [Gem-Ole, 2′-deoxy-2′,2′-difluoro-N4-(((cis-9, octadecenyl)oxy)carbonyl) cytidine]
Appearance of the Lyotropic phase at excess water (25° C.-50° C.) [1]: Anisotropic band
Lyotropic phase formed in water penetration scan [1]: traditional lamellar (La) phase at room temperature and 3D cubic (Pn3m) phase at elevated temperatures above 33 °C

Compound: CC/C=C\C/C=C\C/C=C\CCCCCCCC(=O)OCCOCCOCCOCCOCCOCCOC(=O)Nc1ccn([C@@H]2O[C@H](CO)[C@@H](O)C2(F)F)c(=O)n1 (relative stereo) [Gem-PEG6-linolenoyl, 2′-deoxy-2′,2′-difluoro-N4-((((cis-9, 12, 15 octadecatrienoyl)-oxy-hexaethyleneglycol)oxy)carbonyl) cytidine]
Appearance of the Lyotropic phase at excess water (25° C.-50° C.) [1]: Emulsion
Lyotropic phase ([2]; 25° C.): Sponge phase (L3)
